Results published in ChEMBL document CHEMBL1201862, “PubChem BioAssay data set” (2004).
The source made the active and inactive calls.

Assays:
[1] = target: Photoreceptor-specific nuclear receptor (Homo sapiens, UniProt Q9Y5X4); format: functional, cell-based;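 further: CHO-S cells with Gal4-NCOR and VP16-NR2E3 two-hybrid luciferase reporter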
[2] = target: 26S proteasome non-ATPase regulatory subunit 14 (Homo sapiens, UniProt O00487); assay: inhibition of proteasome subunit RPN11 – biochemical, fluorescence polarization, uHTS hits, confirmation (AID 602368); format: functional
Chain of 26S proteasome non-ATPase regulatory subunit 14 (O00487 whole entry): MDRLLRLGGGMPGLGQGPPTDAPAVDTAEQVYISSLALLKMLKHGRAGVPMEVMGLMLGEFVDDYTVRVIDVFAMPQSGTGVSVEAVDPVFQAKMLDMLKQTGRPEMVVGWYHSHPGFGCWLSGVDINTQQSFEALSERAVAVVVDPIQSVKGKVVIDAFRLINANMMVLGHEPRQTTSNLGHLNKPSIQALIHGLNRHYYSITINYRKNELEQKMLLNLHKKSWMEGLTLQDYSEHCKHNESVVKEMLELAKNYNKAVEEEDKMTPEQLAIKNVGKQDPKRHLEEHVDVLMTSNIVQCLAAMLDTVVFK

[3] = target: 72 kDa type IV collagenase (Homo sapiens, UniProt P08253); assay: Dose Response validation of uHTS RPN11 inhibitor hits using a MMP-2 Fluorescence assay.; format: functional
Chain of 72 kDa type IV collagenase (P08253 whole entry): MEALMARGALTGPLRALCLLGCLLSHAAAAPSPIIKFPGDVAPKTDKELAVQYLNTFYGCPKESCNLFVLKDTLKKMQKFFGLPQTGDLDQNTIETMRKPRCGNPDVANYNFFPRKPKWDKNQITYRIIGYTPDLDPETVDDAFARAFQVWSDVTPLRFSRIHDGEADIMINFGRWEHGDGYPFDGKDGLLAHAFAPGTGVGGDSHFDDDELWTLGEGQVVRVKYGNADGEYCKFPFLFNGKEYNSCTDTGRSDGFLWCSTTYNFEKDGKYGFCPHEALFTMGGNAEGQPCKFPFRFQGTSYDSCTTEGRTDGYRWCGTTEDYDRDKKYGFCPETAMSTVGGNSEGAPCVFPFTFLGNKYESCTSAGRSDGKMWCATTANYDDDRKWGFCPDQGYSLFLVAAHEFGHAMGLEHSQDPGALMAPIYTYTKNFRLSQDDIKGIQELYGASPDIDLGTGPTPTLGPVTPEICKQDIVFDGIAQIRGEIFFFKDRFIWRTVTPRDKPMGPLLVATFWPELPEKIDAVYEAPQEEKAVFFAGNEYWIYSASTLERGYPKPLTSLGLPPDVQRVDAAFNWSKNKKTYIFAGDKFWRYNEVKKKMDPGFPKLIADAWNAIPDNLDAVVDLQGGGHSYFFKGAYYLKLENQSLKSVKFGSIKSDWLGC

[4] = target: ATP-dependent molecular chaperone HSP82 (Candida albicans (strain WO-1) (Yeast), UniProt C4YTQ8); assay: loss of DOC-induced GRE-beta-galactosidase reporter signal, dose response, Hsp90 inhibitor project, S. cerevisiae, luminescence (AID 2400); format: functional, cell-based;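 further: beta-galactosidase luminescence from glucocorticoid response element reporter as proxy for Hsp90 function; inhibitor potency where signal loss means Hsp90 inhibition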
Chain of ATP-dependent molecular chaperone HSP82 (C4YTQ8 whole entry): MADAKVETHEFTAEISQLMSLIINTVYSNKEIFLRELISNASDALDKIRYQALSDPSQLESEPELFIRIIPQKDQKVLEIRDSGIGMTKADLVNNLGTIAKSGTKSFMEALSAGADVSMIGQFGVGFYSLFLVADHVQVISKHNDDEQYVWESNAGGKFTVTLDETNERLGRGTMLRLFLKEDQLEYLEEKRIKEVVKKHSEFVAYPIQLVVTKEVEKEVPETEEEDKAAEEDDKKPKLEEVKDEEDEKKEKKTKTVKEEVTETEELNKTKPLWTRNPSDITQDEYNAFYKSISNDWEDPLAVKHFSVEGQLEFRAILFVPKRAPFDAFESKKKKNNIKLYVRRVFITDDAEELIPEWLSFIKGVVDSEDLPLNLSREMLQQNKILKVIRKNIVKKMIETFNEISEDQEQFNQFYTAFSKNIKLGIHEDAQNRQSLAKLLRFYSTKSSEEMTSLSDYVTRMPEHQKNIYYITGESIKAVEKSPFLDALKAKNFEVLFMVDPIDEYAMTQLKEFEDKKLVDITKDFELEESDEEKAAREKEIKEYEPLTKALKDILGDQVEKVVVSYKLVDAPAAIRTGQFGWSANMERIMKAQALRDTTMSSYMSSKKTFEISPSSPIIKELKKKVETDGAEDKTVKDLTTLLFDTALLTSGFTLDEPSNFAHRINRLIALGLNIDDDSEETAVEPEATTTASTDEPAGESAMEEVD

Nonstructural protein 1 = Nonstructural protein 1 (Influenza A virus, UniProt Q194T2); format: functional, Influenza A virus (A/California/07/2009(H1N1))
Chain of Nonstructural protein 1 (Q194T2 whole entry): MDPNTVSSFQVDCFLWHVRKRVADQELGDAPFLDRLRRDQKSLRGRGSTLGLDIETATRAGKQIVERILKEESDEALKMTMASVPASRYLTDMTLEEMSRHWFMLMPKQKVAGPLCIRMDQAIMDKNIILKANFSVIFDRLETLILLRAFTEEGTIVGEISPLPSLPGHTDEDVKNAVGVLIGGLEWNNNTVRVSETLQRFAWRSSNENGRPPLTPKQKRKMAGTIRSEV

[5] = target: T1, Serine/threonine-protein phosphatase (Candida dubliniensis (strain CD36 / CBS 7987 / NCPF 3949 / NRRLY-17841) (Yeast), UniProt B9W6M3); assay: calcineurin pathway inhibitors in yeast reporter, dose response, S. cerevisiae, CDRE-lacZ, luminescence, secondary (AID 2388); format: functional, cell-based;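 further: yeast reporter cells carrying a calcineurin-responsive lacZ construct stimulated with calcium chloride; luminescent beta-galactosidase reporter signal in whole cells rather than isolated phosphatase activity; potency for inhibition where a drop in reporter signal means calcineurin blockade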
T1 sequence (B9W6M3 whole entry): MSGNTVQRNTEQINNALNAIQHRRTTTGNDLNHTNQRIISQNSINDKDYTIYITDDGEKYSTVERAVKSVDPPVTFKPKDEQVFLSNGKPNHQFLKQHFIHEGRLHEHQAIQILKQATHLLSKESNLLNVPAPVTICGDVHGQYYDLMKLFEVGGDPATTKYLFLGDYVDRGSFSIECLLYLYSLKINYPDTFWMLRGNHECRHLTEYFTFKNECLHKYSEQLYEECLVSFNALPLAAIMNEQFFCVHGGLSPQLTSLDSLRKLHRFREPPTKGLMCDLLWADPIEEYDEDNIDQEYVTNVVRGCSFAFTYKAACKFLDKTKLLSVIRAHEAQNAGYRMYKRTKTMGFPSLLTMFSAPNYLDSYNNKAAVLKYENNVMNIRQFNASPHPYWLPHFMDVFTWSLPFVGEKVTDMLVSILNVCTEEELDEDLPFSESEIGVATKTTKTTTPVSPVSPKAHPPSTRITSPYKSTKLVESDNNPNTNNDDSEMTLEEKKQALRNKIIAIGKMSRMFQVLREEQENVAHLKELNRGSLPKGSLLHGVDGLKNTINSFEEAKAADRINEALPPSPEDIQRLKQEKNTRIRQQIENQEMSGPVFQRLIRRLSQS

[6] = C. albicans growth with fluconazole, confirmation, fluorescence, retest (AID 2467); format: functional, cell-based
[7] = NIH-3T3 fibroblast cytotoxicity, dose response, cytotoxicity control, cell-based, fluorescence, Alamar Blue, secondary assay (AID 2327); format: functional;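 further: NIH-3T3 mouse fibroblasts cultured with fluconazole at 8 µg/mL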
Prothrombin = Prothrombin (Bos taurus, UniProt P00735); assay: thrombin inhibition, dose response, biochemical, fluorescence polarization, uHTS hits (AID 602369); format: functional
[8] = tested on: Streptococcus sp. 'group A'; assay: growth inhibition of control SK(-) GAS strain, dose response, counter-screen for streptokinase expression inhibitor project, luminescence, kanamycin, BacTiterGlo, confirmation (AID 1900); format: functional, organism-based
Streptococcus = assay: Group A Streptococcus viability loss, dose response, counter-screen for streptokinase expression inhibitor project, luminescence, BacTiterGlo (AID 1915); format: functional, organism-based;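 further: potency for reduction of bacterial viability or growth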
Protein Wnt-3a = Protein Wnt-3a (Mus musculus, UniProt P27467); assay: Wnt3a-driven reporter signaling inhibition, dose response, selectivity assay for Gli-SUFU antagonist project, Wnt-LIGHT cells, luminescence (AID 651570); format: functional; conditions: read-out: IC50_Mean;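 further: Wnt-LIGHT reporter cells stimulated with conditioned medium from Wnt3a-producing cells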
Chain of Protein Wnt-3a (P27467 whole entry): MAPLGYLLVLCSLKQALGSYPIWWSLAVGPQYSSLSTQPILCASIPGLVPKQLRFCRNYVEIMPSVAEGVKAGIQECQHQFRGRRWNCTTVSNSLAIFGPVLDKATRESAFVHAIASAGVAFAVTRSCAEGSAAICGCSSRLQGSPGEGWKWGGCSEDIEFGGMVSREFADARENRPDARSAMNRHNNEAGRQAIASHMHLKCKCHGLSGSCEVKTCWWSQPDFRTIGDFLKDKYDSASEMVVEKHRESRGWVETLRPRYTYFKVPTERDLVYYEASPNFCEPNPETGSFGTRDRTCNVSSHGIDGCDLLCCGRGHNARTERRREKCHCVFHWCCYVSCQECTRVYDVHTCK

[9] = control 3'UTR Renilla luciferase suppression, dose response, counter-screen for Shn3 inhibitor project, cell-based, Clone20-Shn3RL, cherry-picked (AID 624133); format: functional
[10] = HepG2 cell cytotoxicity, dose response, cytotoxicity control for Shn3 inhibitor project, CellTiter-Glo, cherry-picked (AID 624134); format: functional, cell-based
Escherichia coli = assay: microbe, parasite or virus in culture
[11] = target: T2, Sentrin-specific protease 1 (Homo sapiens, UniProt Q9P0U3); assay: potency of human SENP1 inhibitors, dose response, biochemical, kinetic FRET (AID 651697); format: functional; conditions: read-out: IC50_Mean
T2 sequence (Q9P0U3 whole entry): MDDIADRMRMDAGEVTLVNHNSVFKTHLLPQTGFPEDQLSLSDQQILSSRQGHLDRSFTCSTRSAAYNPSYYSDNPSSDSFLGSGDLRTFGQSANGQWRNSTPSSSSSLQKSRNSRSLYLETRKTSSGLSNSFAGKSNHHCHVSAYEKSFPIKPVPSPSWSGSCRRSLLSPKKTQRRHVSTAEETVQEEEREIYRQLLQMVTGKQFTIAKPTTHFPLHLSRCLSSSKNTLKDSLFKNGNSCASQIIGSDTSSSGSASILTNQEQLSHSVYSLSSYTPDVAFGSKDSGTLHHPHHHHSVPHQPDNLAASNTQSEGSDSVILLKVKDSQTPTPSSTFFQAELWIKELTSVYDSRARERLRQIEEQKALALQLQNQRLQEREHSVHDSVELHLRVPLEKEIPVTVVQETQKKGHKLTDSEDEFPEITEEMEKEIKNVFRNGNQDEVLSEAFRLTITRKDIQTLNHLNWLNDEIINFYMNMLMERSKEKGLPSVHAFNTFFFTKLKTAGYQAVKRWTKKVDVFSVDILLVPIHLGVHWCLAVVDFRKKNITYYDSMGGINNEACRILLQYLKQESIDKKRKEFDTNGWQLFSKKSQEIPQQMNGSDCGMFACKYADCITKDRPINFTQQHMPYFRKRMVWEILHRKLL

[12] = target: T2, Sentrin-specific protease 1; assay: Dose response confirmation of small molecule inhibitors of the catalytic domain of the SUMO protease, SENP1 in a FRET assay.; format: functional; conditions: read-out: IC50_Mean

Chain of Photoreceptor-specific nuclear receptor (Q9Y5X4 whole entry, the tested form may be a part): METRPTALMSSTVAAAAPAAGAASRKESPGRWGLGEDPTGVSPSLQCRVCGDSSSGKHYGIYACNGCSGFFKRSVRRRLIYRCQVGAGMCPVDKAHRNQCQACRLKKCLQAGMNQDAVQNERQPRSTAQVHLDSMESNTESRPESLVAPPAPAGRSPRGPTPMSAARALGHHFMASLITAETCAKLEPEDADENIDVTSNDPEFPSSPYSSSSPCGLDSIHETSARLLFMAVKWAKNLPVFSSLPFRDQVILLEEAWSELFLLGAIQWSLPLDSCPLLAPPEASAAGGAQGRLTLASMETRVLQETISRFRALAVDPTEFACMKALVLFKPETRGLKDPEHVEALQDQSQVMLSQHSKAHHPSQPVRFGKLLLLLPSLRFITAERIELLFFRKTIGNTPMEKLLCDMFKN

Which results are given for `CCC(=O)NC(c1cccs1)c1cc([N+](=O)[O-])c2cccnc2c1O` (stereo unspecified)?
IC50 [1]: 2.47 µM (active); IC50 [2]: 40.3 µM (active); IC50 [3]: 5.91 µM (active); EC50 [4]: 24 µM (active); IC50 (Nonstructural protein 1): 6.66 µM (active); EC50 [5]: > 180 µM (inactive); EC50 [6]: 0.185 µM (active); EC50 [7]: 33.6 µM (active); IC50 (Prothrombin): > 100 µM (inactive)

For `CC(=O)c1c(O)cc(O)c(C(C)=O)c1O`, which IC50 [1] is on record?
The IC50 was 3.24 µM (active).

And the EC50 [8]?
Its EC50 is 3.9 µM (active).

What about the EC50 (Streptococcus) of the same compound?
The EC50 was 3.98 µM (active).

With `CCCCCCCN1C2=NCCCN2c2ccccc21` as the compound, how does the IC50 (Protein Wnt-3a) read?
The IC50 was 12.6 µM (active).

What about the AC50 [9] of the same compound?
Its AC50 is 11.8 µM (active).

What about the AC50 [10] of the same compound?
The AC50 was 46 µM (active).

With `CCCn1c(=N)c(S(=O)(=O)c2ccc(F)cc2)cc2c(=O)n3cccc(C)c3nc21` as the compound, how does the AC50 (Escherichia coli) read?
The AC50 was 42.8 µM (active).

With `COc1cccc(NC2=Nc3cccc4cccc2c34)c1` as the compound, how does the IC50 [11] read?
The IC50 was 27.7 µM (inactive).

What about the IC50 [2] of the same compound?
Its IC50 is 27.6 µM (active).

And the IC50 [3]?
Its IC50 is > 100 µM (inactive).

And the IC50 [12]?
The IC50 was 41.3 µM (inactive).

And the IC50 (Prothrombin)?
Its IC50 is 37.8 µM (active).
